According to article PMC5458078, “Global mapping of CARM1 substrates defines enzyme specificity and substrate recognition” (Nature Communications, 2017):

Assays:
[1] = system: MCF7 cells; experiment: Quantitative nanoLC-MS/MS (TMT) of ADMA-containing peptides, CARM1 KO vs parental; assay type: cell-based, human; design: Fold change KO/WT: scale not given here
[2] = system: MCF7 CARM1 KO cells; experiment: Quantitative MS of ADMA-containing peptides in MCF7 CARM1 KO cells expressing CARM1 28-608 or CARM1 140-608, and in CARM1 KO; assay type: cell-based, human
[3] = MCF7 CARM1 knockout vs wild type, 3 biological replicates each, values are on log2 scale
[4] = difference of log2 means, CARM1 140-608 vs WT
[5] = difference of log2 means, KO vs WT
[6] = MCF7, CARM1 KO (KO1-KO3) vs wild type (WT1-WT3)
[7] = CARM1 140-608 vs WT, mean of 3 replicates (log2 scale)
[8] = KO vs WT, mean of 3 replicates (log2 scale)
[9] = ADMA-containing peptide, MCF7, CARM1 knockout (KO1-3) vs wild type (WT1-3), TMT 6-plex experiment #1
[10] = log2 scale ratio, mean of n = 3
[11] = ADMA-containing peptide, CARM1 knockout (KO) vs wild type (WT) MCF7 cells, 6-plex TMT experiment #1, three biological replicates each, sheet "MCF7"
[12] = MCF7, CARM1 KO vs WT, three biological replicates each
[13] = CARM1 140-608 vs WT, mean of 3 replicates, log2
[14] = KO vs WT, mean of 3 replicates, log2
[15] = CARM1 140-608 versus WT, mean of three replicates (log2)
[16] = KO versus WT, mean of three replicates (log2)
[17] = CARM1 KO vs wild type MCF7 cells, 3 biological replicates each
[18] = CARM1 140-608 versus WT, difference of mean log2 values
[19] = CARM1 KO versus WT, difference of mean log2 values
[20] = MCF7, CARM1 knockout vs wild type, n = 3 each
[21] = mean, CARM1 140-608 versus WT (log2 scale)
[22] = mean, CARM1 KO versus WT (log2 scale)
[23] = ratio on log2 scale, mean of 3 replicates

GSQDSPAVPHPGPLQHWQPENVNQAFTrPPPPYPGNIrSPVAPPLGPrYAVFPK
Fold change KO/WT [1, 3]: -2.234 | CARM1 140-608/WT [2, 4]: -1.013 | KO/WT [2, 5]: -2.722

MGTPVPRPPQDMGQIGVrTPLGPrVAAPVGPVGPTPTVLPMGAPVPrPR
Fold change KO/WT [1, 6]: -2.803 | CARM1 140-608/WT [2, 7]: -2.519 | KO/WT [2, 8]: -3.3286

SPFLGSArPrLrFSPYQIPVTIPPSTSLLTTGLASEGSK
Fold change KO/WT [1, 9]: -3.915 | CARM1 140-608/WT [2, 10]: -2.053 | KO/WT [2, 10]: -3.915

VrLPCQPLVPGPELRPSAAELK
Fold change KO/WT [1, 3]: -2.704 | CARM1 140-608/WT [2, 4]: -1.578 | KO/WT [2, 5]: -2.704

QGSIGLYTQNQPLPAGGPrVDPYrPVrLPMQK
Fold change KO/WT [1, 11]: -2.292 | CARM1 140-608/WT [2, 4]: -2.266 | KO/WT [2, 5]: -3.357

SLIPPIPVSPPILAPrLSSGALK
Fold change KO/WT [1, 6]: -3.075 | CARM1 140-608/WT [2, 7]: -0.7213 | KO/WT [2, 8]: -2.509

GArLPGPVSSAR
Fold change KO/WT [1, 12]: -2.095 | CARM1 140-608/WT [2, 13]: -1.788 | KO/WT [2, 14]: -2.095

FEGPQGQLGGGCPLrFEGPPGPVGTPLrFEGPIGQAGGGGFR
Fold change KO/WT [1, 11]: -2.35 | CARM1 140-608/WT [2, 15]: 1.054 | KO/WT [2, 16]: -2.35

CDPVPAANGAIrFHCDPTFWAK
Fold change KO/WT [1, 17]: -1.494 | CARM1 140-608/WT [2, 18]: -1.543 | KO/WT [2, 19]: -1.494

KPLGTAPHCPrLPLRK
Fold change KO/WT [1, 20]: -4.08 | CARM1 140-608/WT [2, 21]: -2.5902 | KO/WT [2, 22]: -4.08

SGFAATSQPGPrLPFIQHSQNPrFYHK
Fold change KO/WT [1, 20]: -3.247 | CARM1 140-608/WT [2, 21]: -0.6332 | KO/WT [2, 22]: -3.722

MGTPVPrPPQDMGQIGVrTPLGPRVAAPVGPVGPTPTVLPMGAPVPrPR
Fold change KO/WT [1, 6]: -3.625 | CARM1 140-608/WT [2, 7]: -2.791 | KO/WT [2, 8]: -3.834

MGTPVPRPPQDMGQIGVrTPLGPrVAAPVGPVGPTPTVLPMGAPVPrPrGPPPPPGDENR
Fold change KO/WT [1, 6]: -3.294 | CARM1 140-608/WT [2, 7]: -2.604 | KO/WT [2, 8]: -3.5517

GASQAGMTGYGMPrQIL
Fold change KO/WT [1, 9]: -2.889 | CARM1 140-608/WT [2, 10]: -2.236 | KO/WT [2, 10]: -2.889

GAAGAVTQSLSrTPTATTSGIrATLTPTVLAPrLPQPPQNPTNIQNFQLPPGMVLVR
Fold change KO/WT [1, 9]: -4.565 | CARM1 140-608/WT [2, 10]: -3.099 | KO/WT [2, 10]: -4.565

ErYLGGIK
Fold change KO/WT [1, 20]: 0.4212 | CARM1 140-608/WT [2, 23]: 0.1385 | KO/WT [2, 23]: 0.4212

LGRPIGALArGAIGGR
Fold change KO/WT [1, 12]: 0.325 | CARM1 140-608/WT [2, 23]: 0.09518 | KO/WT [2, 23]: 1.211

GTPGPPPAHGAALQPHPrVNFCPLPSEQCYQAPGGPEDR
Fold change KO/WT [1, 17]: -0.7925 | CARM1 140-608/WT [2, 18]: -1.327 | KO/WT [2, 19]: -0.7925

GPPPFPGVPLMSTPMGGPVPPPIrYGPPPQLCGPFGPrPLPPPFGPGMrPPLGLREFAPGVPPGrR
Fold change KO/WT [1, 11]: -2.997 | CARM1 140-608/WT [2, 4]: -1.1204 | KO/WT [2, 5]: -2.997

QLrMQLQQrLQGQQFLNQSrQALELK
Fold change KO/WT [1, 11]: -3.961 | CARM1 140-608/WT [2, 15]: -3.52 | KO/WT [2, 16]: -6.321

FCAFGGNPPVTGPrSALAPNLLTSGK
Fold change KO/WT [1, 12]: -4.63 | CARM1 140-608/WT [2, 13]: -3.4143 | KO/WT [2, 14]: -5.047

GGrGrGGSGGGGGGGGGGYNR
Fold change KO/WT [1, 20]: -0.05268 | CARM1 140-608/WT [2, 21]: 0.1837 | KO/WT [2, 22]: 0.3356

GPrFEGNrPDGPrPrYEGHPAEGTK
Fold change KO/WT [1, 17]: -5.083 | CARM1 140-608/WT [2, 18]: -4.084 | KO/WT [2, 19]: -5.484

DFAFYNPrLQGK
Fold change KO/WT [1, 12]: -2.168 | CARM1 140-608/WT [2, 13]: -2.071 | KO/WT [2, 14]: -2.382

APVFPGrGSYSNr
Fold change KO/WT [1, 3]: 0.2723 | CARM1 140-608/WT [2, 21]: 0.2637 | KO/WT [2, 22]: 0.3482

QrGVSHAMGGrGGINR
Fold change KO/WT [1, 9]: 0.102 | CARM1 140-608/WT [2, 10]: 0.2049 | KO/WT [2, 10]: 0.2554

SKPQLArYLGGSMDLSTFDFR
Fold change KO/WT [1, 11]: -0.3057 | CARM1 140-608/WT [2, 4]: -0.3331 | KO/WT [2, 5]: -0.5289

ITVPrLSVGSVTSrPSTPTLGTPTPQTMSVSTK
Fold change KO/WT [1, 9]: -2.222 | CARM1 140-608/WT [2, 10]: -1.745 | KO/WT [2, 10]: -2.222

APPGGLHAPrLSLEGAArGAAEAK
Fold change KO/WT [1, 12]: -2.606 | CARM1 140-608/WT [2, 13]: -2.013 | KO/WT [2, 14]: -2.606

AQPFAQPPGPWPLSSPGPrLVFNR
Fold change KO/WT [1, 20]: -4.7261 | CARM1 140-608/WT [2, 23]: -2.181 | KO/WT [2, 23]: -4.994

QALGSPLAGISTrLPGPGEPVPGPAGPAQFIELrHNVQK
Fold change KO/WT [1, 3]: -2.458 | CARM1 140-608/WT [2, 4]: -1.36 | KO/WT [2, 5]: -2.458

QHLLLrGPPPGSANPPrLVSSYrLK
Fold change KO/WT [1, 3]: -1.782 | CARM1 140-608/WT [2, 4]: -1.091 | KO/WT [2, 5]: -1.563
